According to patent US20110070232A1, “Combination Therapy with an Antitumor Alkaloid” (Pharma Mar, S.A., priority 2008, published 2011):
Read-outs that look alike come from different tables or passages of the source.

Assays:
SK-OV-3 tumors = type: in vivo, mice
Description: Female athymic nude mice (Harlan Sprague Dawley, Madison, Wis.) were utilized for all experiments. Animals were housed in ventilated rack caging with food and water ad libitum. The mice were acclimated for at least 5 days prior to tumor implantation with tumor fragments.
The tumor model used in these studies was SK-OV-3 cell line, which was obtained from the ATCC (Manassas, Va.).
SK-OV-3 fragments were removed from donor animals and tissue was debrided of membrane and any hemorrhagic and necrotic areas and 3-4 mm^3 fragments, from in vivo passage 2, were implanted SC on the right flank of each animal, using a 13G trochar. Bacterial culture was taken on cells used to implant the study.
Treatments were initiated on DPI 14.
Tumor size measurements were recorded twice weekly from the treatment initiation until the termination of the study.
(§1) Mean, standard deviation and standard error of the mean were determined for tumor volume for all animal groups at all assessments. Student's t test was performed on tumor volumes at each measurement day, including at the end of the study, to determine whether there were any statistically significant differences between combination treatment groups and single monotherapy treatment groups.

NCI-H460 tumors = type: in vivo, mice
Method: Female athymic nude mice (Harlan Sprague Dawley, Madison, Wis.) were utilized for all experiments. Animals were housed in ventilated rack caging with food and water ad libitum. The mice were acclimated for at least 5 days prior to tumor implantation.
The tumor model used in this study was NCI-H460 cell line which is a human NSCLC cell line obtained from the ATCC (Manassas, Va.). […] Cells from in vitro passage 7 were implanted SC into study mice using a 1 ml syringe with a 13G trocar: 5×10^6 cells/mouse in 0.2 ml 50% Matrigel/50% RPMI medium of NCI-H460 without serum or antibiotics. Bacterial culture was taken on cells used to implant the study.
Treatments were initiated on DPI 9.
Tumor size measurements were recorded 2-3 times/week from the treatment initiation until the termination of the study.
as §1

[1] = Bevacizumab […] IP, alone or with PM00104 0.90 mg/kg/day IV
[2] = PM00104 0.90 mg/kg/day IV and/or Bevacizumab 5 mg/kg/day IP
[3] = Bevacizumab […] IP, alone or with PM00104 0.9 mg/kg/day IV
[4] = PM00104 0.9 mg/kg/day IV and/or Bevacizumab 5 mg/kg/day IP

bevacizumab
% T/C on day 14 (SK-OV-3 tumors; [1]): 100.5%
% T/C on day 17 (SK-OV-3 tumors; [1]): 85.0%
% T/C on day 21 (SK-OV-3 tumors; [1]): 61.0%
% T/C on day 24 (SK-OV-3 tumors; [1]): 48.4%
% T/C on day 29 (SK-OV-3 tumors; [1]): 32.1%
% T/C on day 32 (SK-OV-3 tumors; [1]): 29.6%
% T/C on day 36 (SK-OV-3 tumors; [1]): 40.3%
% T/C on day 43 (SK-OV-3 tumors; [1]): 48.7%
% T/C on day 50 (SK-OV-3 tumors; [1]): 47.5%
% T/C on day 57 (SK-OV-3 tumors; [1]): 70.0%
% T/C on day 14 (SK-OV-3 tumors; [2]): 100.2%
% T/C on day 17 (SK-OV-3 tumors; [2]): 76.6%
% T/C on day 21 (SK-OV-3 tumors; [2]): 64.0%
% T/C on day 24 (SK-OV-3 tumors; [2]): 42.6%
% T/C on day 29 (SK-OV-3 tumors; [2]): 28.0%
% T/C on day 32 (SK-OV-3 tumors; [2]): 25.8%
% T/C on day 36 (SK-OV-3 tumors; [2]): 30.7%
% T/C on day 43 (SK-OV-3 tumors; [2]): 43.8%
% T/C on day 50 (SK-OV-3 tumors; [2]): 42.5%
% T/C on day 57 (SK-OV-3 tumors; [2]): 46.1%
% T/C on day 9 (NCI-H460 tumors; [3]): 99.4%
% T/C on day 13 (NCI-H460 tumors; [3]): 81.7%
% T/C on day 16 (NCI-H460 tumors; [3]): 74.3%
% T/C on day 21 (NCI-H460 tumors; [3]): 59.7%
% T/C on day 24 (NCI-H460 tumors; [3]): 52.0%
% T/C on day 27 (NCI-H460 tumors; [3]): 26.9%
% T/C on day 30 (NCI-H460 tumors; [3]): 43.3%
% T/C on day 38 (NCI-H460 tumors; [3]): 96.8%
% T/C on day 41 (NCI-H460 tumors; [3]): 104.7%
% T/C on day 9 (NCI-H460 tumors; [4]): 102.1%
% T/C on day 13 (NCI-H460 tumors; [4]): 91.3%
% T/C on day 16 (NCI-H460 tumors; [4]): 87.6%
% T/C on day 21 (NCI-H460 tumors; [4]): 74.2%
% T/C on day 24 (NCI-H460 tumors; [4]): 68.3%
% T/C on day 27 (NCI-H460 tumors; [4]): 38.7%
% T/C on day 30 (NCI-H460 tumors; [4]): 43.7%
